From patent publication US20240002424A1, “HEXOSAMINE COMPOUNDS AND METHODS THEREOF” (National Institute of Immunology, priority 2021, published 2024)

Legend:
HL-60 cells = assay: Anti-CLA (HECA452) antibody binding by flow cytometry; assay type: cell-based, human; conditions: 50 μM, 24 h
Procedure: Effect of HexNAc analogues on the expression of cutaneous lymphocyte antigen (CLA/HECA452) epitopes: HL-60 cells (3.0×10^5 cells/mL in 2.5 mL complete medium in 6-well plates) were treated with D, 1a, 1b, or 1d (50 mM), including untreated controls. After 24 h cells were harvested, washed in PBS (3×0.5 mL), aliquoted to 5.0×10^5 cells per sample, and incubated with rat anti-human CLA (HECA452) antibody (5.0 mg/mL) in PBS (50 mL) at 4° C. After 1.0 h, cells were washed with PBS (2×0.5 mL) and stained with AlexaFluor488-conjugated anti-rat IgM (10 mg/mL) in PBS (50 mL) at 4° C. After 1.0 h, cells were washed with PBS (2×0.5 mL), resuspended in PBS (0.2 mL) and treated with PI (2.5 mg/mL). Additionally control samples of cells treated with (i) isotype antibody followed by secondary antibody and (ii) only secondary antibody were prepared. Cells were gated on PI-negative population and analyzed by flow cytometry as given above. Two replicate samples were analyzed for each condition and each sample was counted twice by flow cytometry as mentioned above.

Jurkat cells = assay: NeuAz expression on the cell surface by SPAAC with DBCO-Cy5 and flow cytometry, competition with Ac4ManNAz (1c); assay type: cell-based, human; conditions: for NeuAz expression / DBCO-Cy5 signal, compound alone: 50 μM alone; for extent of suppression of NeuAz expression by 1c: 50 μM co-incubated with 1c, study parallel to GalNAz; for NeuAz expression, % of controls: 50 μM with 1c 50 μM, simultaneous addition; for reduction of NeuAz, simultaneous addition: analogue 10 μM and 1c 50 μM added simultaneously
Procedure: FIG. 5 illustrates competitive processing by compounds of the present invention (ManNAc compounds). ManNAc compounds competitively reduce the expression of N-azidoacetyl-D-neuraminic acid (NeuAz)-carrying sialoglycans through the metabolic processing of Ac4ManNAz. Jurkat (human T-lymphoma) cells were incubated with Ac4ManNAz (Z) (50 μM) alone, co-incubated with GL-2, GL-3, MA-2, or MA-3 (at various concentrations such as 10,
25, and 50 μM) for 24 h. Expression of N-azidoacetyl-D-neuraminic acid (NeuAz) on the cell surface sialoglycans was estimated using strain-promoted azide-alkyne cycloaddition (SPAAC) with DBCO-Cy5 and analyzed by flow cytometry. […] GL-2 was used for comparative study and the structure of this compound is as below.
Jurkat cells (3.0×10^5 cells/mL; 2.5 mL per well in 6-well plates) in complete medium were treated with either vehicle (D) or Compound 1c; Untreated Jurkat cells, without addition of vehicle, were also included as additional controls. Cells were harvested at 48 h, washed thrice with PBS (3×0.5 mL) (3000×g, 2.0 min). Prior to the last wash cells were counted and were aliquoted to 1.0×10^6 cells per sample in 1.5 mL microcentrifuge tubes and centrifuged. The cells were gently resuspended in PBS ([…]) and treated with DBCO-Cy5 ([…]) and incubated at 37° C. (on a Torrey-Pines dry heating bath with mild shaking). After one hour, the cells were washed using FSB (0.5 mL, 3000×g, 2.0 min, room temperature), resuspended in PBS (250 mL), treated with PI (2.5 mg/mL), and analyzed using BD FACSCanto and FACSDiva Version 6.1.3. The cells were gated for PI-negative population for 10,000 events. Two replicate samples were prepared for each conditions and each sample was counted twice.
Estimation of NeuAz expression by 1c in the presence of peracetylated ManNAc analogues: Jurkat cells (3.0×10^5 cells/mL in 3.0 mL per well in 6-well plates) were incubated with (i) D, (ii) 1a, 1b, 1c, or 1d alone (50 mM) or (iii) 1a, 1b, or 1d (50 mM) in combination with 1c (50 mM). After 24 h, cells were harvested, washed using FSB, aliquoted to 5.0×10^5 cells per sample, and processed as mentioned above for estimation of NeuAz expression using DBCO-Cy5 ([…]). Experiments using HL-60 cells were performed using the same procedure. […]
Effect of GlcNAc and ManNAc analogues on NeuAz expression: Jurkat cells were treated with 1a, 1b, 2a, or 2b (10, 25, and 50 mM for each analogue) in combination with 1c (50 mM). Cells treated with 1c (50 mM) alone were considered as a reference. After 24 h, cells were harvested, processed, labelled with DBCO-Cy5 ([…]), and analysed by flow cytometry as mentioned above.
In order to evaluate the metabolism, Jurkat (human T-lymphoma) cells were selected and incubated with ManNAc analogues either alone (50 μM) or in combination with 1c (50 μM) for 48 h. Expression of NeuAz on cell surface was estimated by flow cytometry through the copper-free bio-orthogonal strain-promoted azide-alkyne cycloaddition (SPAAC) reaction using dibenzocyclooctyne-Cy5 (DBCO-Cy5). The conditions for click reaction were optimized for various concentrations of DBCO-Cy5 and time course of SPAAC reaction in Jurkat cells. Based on the optimization results, incubation time of 30 min at 37° C. for 5.0×10^5 cells (pre-incubated with 1c for 48 h) with 20 μM of DBCO-Cy5 in 100 μL total volume for experiments with ManNAc analogues was chosen. […] In order to test the dose-dependency of this inhibitory effect on NeuAz expression and to establish competitive metabolic processing, Jurkat cells were first treated with either 1a or 1b (0-50 μM) followed by addition of 1c (50 μM) at 12 h and estimation of NeuAz at 48 h. As expected, the suppression of NeuAz expression was substantially higher when added with a 12 h delay compared to simultaneous addition, in a dose-dependent manner. […] By contrast simultaneous addition resulted only in a 10% reduction of NeuAz for both 1a and 1b (FIG. 6C and FIG. 7B).

[1] = 50 μM co-incubated with 1c 50 μM, 48 h

| Compound | decrease in HECA-452 binding compared to untreated cells (HL-60 cells) [%] | NeuAz expression / DBCO-Cy5 signal, compound alone (Jurkat cells; 48 h) | NeuAz expression (1c alone taken as 100%) (Jurkat cells; [1]) [%] | extent of suppression of NeuAz expression by 1c (Jurkat cells) [%] | NeuAz expression, % of controls (Jurkat cells; 24 h) [%] | NeuAz expression upon co-incubation with Ac4ManNAz (Jurkat cells; Ac4ManNAz (Z) 50 μM plus analogue at 10, 25, 50 μM, 24 h, listed as MA-2) | reduction of NeuAz, simultaneous addition (Jurkat cells) [%] | change in HECA-452 binding (in words) (HL-60 cells) | reduction of NeuAz expression (Jurkat cells; [1]) [%] |
| --- | --- | --- | --- | --- | --- | --- | --- | --- | --- |
| CC(=O)OC[C@H]1O[C@H](OC(C)=O)[C@@H](NC(=O)C2CC2)[C@@H](OC(C)=O)[C@@H]1OC(C)=O [Compound 1a, 1,3,4,6-tetra-O-acetyl-2-cyclopropanoylamino-2-deoxy-α-D-mannopyranose] | 40 | negligible signals | 60 | 50 | 60 | reduced competitively in a dose-dependent manner | 10 | – | – |
| CC(=O)OC[C@H]1OC(OC(C)=O)[C@@H](NC(=O)C2CCC2)[C@@H](OC(C)=O)[C@@H]1OC(C)=O (stereo partly drawn) [Compound 1b, (3S,4R,5S,6R)-6-(acetoxymethyl)-3-(cyclobutanecarboxamido)tetrahydro-2H-pyran-2,4,5-triyl triacetate] | 40 | negligible signals | 65 | 50 | 50 | – | 10 | – | – |
| CC(=O)NC1C(OC(C)=O)OC(COC(C)=O)[C@@H](OC(C)=O)[C@@H]1OC(C)=O (stereo partly drawn) [Compound 1d, 1,3,4,6-tetra-O-acetyl-2-acetylamino-2-deoxy-α/β-D-mannopyranose] | – | negligible signals | 30 | – | – | – | – | moderate increase | 70 |
